{
  "source": "patent US11479578B2",
  "about": "“Protein purification and virus inactivation with alkyl glycosides” (priority 2017, dated 2022)",
  "key": {"PRV (pseudorabies virus)": {"test_system": "PRV (pseudorabies virus)", "assay_type": "cell-based"}, "[1]": {"test_system": "BVDV (bovine viral diarrhea virus)", "assay_type": "cell-based"}, "VACV (Vaccinia virus)": {"test_system": "VACV (Vaccinia virus)", "assay_type": "cell-based"}, "[2]": {"test_system": "VSV (Vesicular Stomatitis Virus)", "assay_type": "cell-based"}, "[3]": {"test_system": "MuLV (murine leukemia virus)", "assay_type": "cell-based"}, "rD′D3-FP": {"biological_target": "T1, rD′D3-FP (Homo sapiens, UniProt P02768+P04275)", "T1 construct": "made in house; host or cells: CHO cells", "T1 sequence (P04275+P02768 fused)": "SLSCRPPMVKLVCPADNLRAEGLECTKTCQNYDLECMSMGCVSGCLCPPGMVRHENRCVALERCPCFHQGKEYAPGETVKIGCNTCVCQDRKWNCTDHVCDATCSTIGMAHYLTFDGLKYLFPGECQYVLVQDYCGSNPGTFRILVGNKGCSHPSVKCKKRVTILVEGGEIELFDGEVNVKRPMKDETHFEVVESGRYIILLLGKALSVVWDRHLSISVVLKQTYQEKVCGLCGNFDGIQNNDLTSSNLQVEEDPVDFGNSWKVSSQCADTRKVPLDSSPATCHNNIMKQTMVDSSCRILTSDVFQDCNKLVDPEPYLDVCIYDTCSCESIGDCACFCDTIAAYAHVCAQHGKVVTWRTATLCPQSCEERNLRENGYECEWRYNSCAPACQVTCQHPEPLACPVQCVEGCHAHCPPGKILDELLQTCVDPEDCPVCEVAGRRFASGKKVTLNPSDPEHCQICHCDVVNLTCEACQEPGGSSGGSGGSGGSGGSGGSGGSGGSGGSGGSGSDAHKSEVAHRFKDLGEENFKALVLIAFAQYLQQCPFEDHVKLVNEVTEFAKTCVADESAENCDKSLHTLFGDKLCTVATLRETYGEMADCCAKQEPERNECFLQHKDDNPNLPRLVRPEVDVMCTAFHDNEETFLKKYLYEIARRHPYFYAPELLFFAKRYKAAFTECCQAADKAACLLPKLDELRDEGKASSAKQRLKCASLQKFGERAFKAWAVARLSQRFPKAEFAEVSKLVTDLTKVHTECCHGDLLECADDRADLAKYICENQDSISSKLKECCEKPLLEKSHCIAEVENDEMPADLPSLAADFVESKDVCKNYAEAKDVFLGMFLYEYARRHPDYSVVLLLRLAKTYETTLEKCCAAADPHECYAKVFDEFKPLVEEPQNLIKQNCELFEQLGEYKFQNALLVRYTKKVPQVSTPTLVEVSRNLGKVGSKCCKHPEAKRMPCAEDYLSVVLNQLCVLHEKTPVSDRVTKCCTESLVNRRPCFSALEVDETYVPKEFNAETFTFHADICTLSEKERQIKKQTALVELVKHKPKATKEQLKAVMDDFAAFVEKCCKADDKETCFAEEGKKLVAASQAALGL"}},
  "note": "Read-outs that look alike come from different tables or passages of the source.",
  "data": [
    {"smiles": "CCCCCCCCCCCCO[C@@H]1O[C@H](CO)[C@@H](O)[C@H](O)[C@H]1O", "note": "[DDG, n-dodecyl-beta-D-glucopyranoside]", "values": [
      {"measurement": "PRV virus titre after treatment", "setting": "PRV (pseudorabies virus)", "result": "≤2.2"},
      {"measurement": "virus inactivation capacity (in words)", "setting": "PRV (pseudorabies virus)", "result": "effective"}
    ]},
    {"smiles": "CCCCCCCCCCCCO[C@@H]1O[C@H](CO)[C@@H](O[C@H]2O[C@H](CO)[C@@H](O)[C@H](O)[C@H]2O)[C@H](O)[C@H]1O", "note": "[DDM, n-dodecyl-beta-D-maltoside]", "values": [
      {"measurement": "PRV virus titre after treatment", "setting": "PRV (pseudorabies virus)", "result": "≤4.2"},
      {"measurement": "virus inactivation capacity (in words)", "setting": "PRV (pseudorabies virus)", "result": "effective"}
    ]},
    {"smiles": "CCCCCCCCCCO[C@@H]1O[C@H](CO)[C@@H](O)[C@H](O)[C@H]1O", "note": "[DG, n-decyl-beta-D-glucopyranoside]", "values": [
      {"measurement": "PRV virus titre after treatment", "setting": "PRV (pseudorabies virus)", "result": "≤2.2"},
      {"measurement": "virus inactivation capacity (in words)", "setting": "PRV (pseudorabies virus)", "result": "effective"}
    ]},
    {"smiles": "CCCCCCCCCCO[C@@H]1O[C@H](CO)[C@@H](O[C@H]2O[C@H](CO)[C@@H](O)[C@H](O)[C@H]2O)[C@H](O)[C@H]1O", "note": "[DM, n-decyl-beta-D-maltoside]", "values": [
      {"measurement": "PRV virus titre after treatment", "setting": "PRV (pseudorabies virus)", "result": "≤2.2"},
      {"measurement": "virus inactivation capacity (in words)", "setting": "PRV (pseudorabies virus)", "result": "effective"}
    ]},
    {"smiles": "CCCCCCCCO[C@@H]1O[C@H](CO)[C@@H](O)[C@H](O)[C@H]1O", "note": "[OG, n-octyl-beta-D-glucopyranoside]", "values": [
      {"measurement": "BVDV virus titre after treatment", "setting": "[1]", "result": "≤1.2"},
      {"measurement": "LRV", "setting": "[1]", "result": "≥5.3", "unit": "log10"},
      {"measurement": "time to complete BVDV inactivation", "setting": "[1]", "result": "≤ 15", "unit": "min"},
      {"measurement": "VACV inactivation (in words)", "setting": "VACV (Vaccinia virus)", "result": "completely inactivates VACV very fast"},
      {"measurement": "VACV virus titre after treatment", "setting": "VACV (Vaccinia virus)", "result": "≤1.5"},
      {"measurement": "VSV virus titre after treatment", "setting": "[2]", "result": "≤1.5"},
      {"measurement": "LRV", "setting": "[3]", "result": "≥4.2", "unit": "log10"},
      {"measurement": "MuLV virus titre after treatment", "setting": "[3]", "result": "≤1.2"},
      {"measurement": "time to complete MuLV inactivation", "setting": "[3]", "result": "≤ 15", "unit": "min"},
      {"measurement": "LRV", "setting": "PRV (pseudorabies virus)", "result": "≥6.3", "unit": "log10"},
      {"measurement": "time to complete PRV inactivation", "setting": "PRV (pseudorabies virus)", "result": 60, "unit": "min"},
      {"measurement": "virus inactivation capacity (in words)", "setting": "PRV (pseudorabies virus)", "result": "effective"},
      {"measurement": "PRV Load", "setting": "PRV (pseudorabies virus); 15 min", "result": "≤1.2", "unit": "log10"},
      {"measurement": "PRV Load", "setting": "PRV (pseudorabies virus); 120 min", "result": 6.7, "unit": "log10"},
      {"measurement": "rD′D3-FP in the eluate fraction", "setting": "rD′D3-FP", "result": 83, "unit": "%"}
    ]},
    {"smiles": "CCCCCCCCO[C@@H]1O[C@H](CO)[C@@H](O[C@H]2O[C@H](CO)[C@@H](O)[C@H](O)[C@H]2O)[C@H](O)[C@H]1O", "note": "[OM, n-octyl-beta-D-maltoside]", "values": [
      {"measurement": "virus inactivation capacity (in words)", "setting": "PRV (pseudorabies virus)", "result": "effective"}
    ]}
  ]
}
